Data set [1] concerns leukemia (CCRF-CEM, HL-60 (TB), K-562, MOLT-4, RPMI-8226, and SR). Description: NCI in vitro anticancer screen, leukemia subpanel. Type of data set: cell-based. Conditions: Homo sapiens, read-out: GI50 Leukemia.
Data set [2] has as its system non-small cell lung cancer (A549/ATCC, EKVX, HOP-62, HOP-92, NCI-H226, NCI-H23, NCI-H322M, NCI-H460, and NCI-H522). The data set is described as follows: NCI in vitro anticancer screen, non-small-cell lung cancer subpanel. Type of data set: cell-based, human. To be noted: Homo sapiens, read-out: GI50 Non-small-cell lung cancer.
Data set [3] has as its system colon cancer (COLO 205, HCC-2998, HCT-116, HCT-15, HT29, KM12, and SW-620). The data set is described as follows: NCI in vitro anticancer screen, colon cancer subpanel. Type of data set: cell-based, human. To be noted: Homo sapiens, read-out: GI50 Colon cancer.
Data set [4] deals with CNS cancer (SF-268, SF-295, SF-539, SNB-19, SNB-75, and U251). The data set is described as follows: NCI in vitro anticancer screen, CNS cancer subpanel. The class given is cell-based, human. To be noted: Homo sapiens, read-out: GI50 CNS cancer.
For data set [5], the system named is melanoma (LOX IMVI, MALME-3M, M14, SK-MEL-2, SK-MEL-28, SK-MEL-5, UACC-62, and UACC-257). Description: NCI in vitro anticancer screen, melanoma subpanel. The class given is cell-based, human. To be noted: Homo sapiens, read-out: GI50 Melanoma.
Data set [6] relates to ovarian cancer (IGROV1, OVCAR-3, OVCAR-4, OVCAR-5, OVCAR-8, and SK-OV-3). Description: NCI in vitro anticancer screen, ovarian cancer subpanel. Type of data set: cell-based, human. To be noted: Homo sapiens, read-out: GI50 Ovarian cancer.
For data set [7], the system named is renal cancer (786-0, A498, ACHN, CAKI-1, RXF 393, SN12C, TK-10, and UO-31). The data set is described as follows: NCI in vitro anticancer screen, renal cancer subpanel. Conditions: Homo sapiens, read-out: GI50 Renal cancer. Type of data set: cell-based, human.
In data set [8] the test system is prostate cancer (PC-3 and DU-145). Description: NCI in vitro anticancer screen, prostate cancer subpanel. The class given is cell-based, human. Conditions: Homo sapiens.
In data set [9] the test system is breast cancer (MCF7, MCF7/ADR-RES, MDA-MB-231/ATCC, HS 578T, MDA-MB-435, MDA-N, and T-47D). Description: NCI in vitro anticancer screen, breast cancer subpanel. Conditions: Homo sapiens, read-out: GI50 Breast cancer. Type of data set: cell-based, human.
Data set [10] deals with NCI's full panel of 60 human cancer cell lines. The data set is described as follows: NCI in vitro anticancer screen, full panel mean. Type of data set: cell-based.
The mark [11] stands for this setting: subpanel value, concentration causing 50% cell growth inhibition.
Where [12] appears, read: DU-145, subpanel value, read-out: GI50 Prostate cancer.
Setting [13] is: Homo sapiens, mean values over all cell lines tested, read-out: GI50 MG_MID.
The mark [14] stands for this setting: mean over all cell lines, read-out: mean GI50.

Where two headings read alike, the source gives them in different places.

Turning to `COc1cc(NS(C)(=O)=O)ccc1Nc1c2ccccc2nc2ccccc12` [m-AMSA, 4′-(9-acridinylamino)methanesulfonyl-m-anisidine, reference compound], the GI50 (as a rule, the concentration giving 50% growth inhibition) in [1] (setting [11]) was found to be 0.1 µM; in data set [2] (subpanel value) it was 0.35 µM; in data set [3] (subpanel value), 1.07 µM; in data set [4] (subpanel value), 0.42 µM; in data set [5] (subpanel value) it was 0.58 µM; in [6] (subpanel value) it was 1.05 µM. For the same compound, the concentration for 50% growth inhibition (GI50) in [7] (subpanel value) was 0.87 µM; in data set [8] (setting [12]) it was 0.16 µM; in data set [9] (subpanel value), 0.58 µM; in data set [10] (setting [13]), 0.44 µM; in data set [10] (setting [14]), 0.44 µM.

Consider `C/C(=N\O)c1cccc(Nc2c3ccccc3nc3occc23)c1` [Compound 9a, (E)-1-[3-(Furo[2,3-b]quinolin-4-ylamino)phenyl]ethanone oxime], for which the melting point (commonly the temperature, or range, at which the solid turns liquid) is 248 to 249 °C. Besides, in [1] (setting [11]), the 50% growth inhibitory concentration (GI50) was 3.64 µM. In data set [2] (subpanel value), the GI50 was determined as 8.01 µM. Besides, in data set [3] (subpanel value), the 50% growth inhibitory concentration (GI50) was 5.35 µM. Besides, the GI50 in data set [4] (subpanel value) was found to be 10.5 µM. Besides, the GI50 in data set [5] (subpanel value) amounted to 4.81 µM. The concentration for 50% growth inhibition (GI50) in data set [6] (subpanel value) stood at 13.6 µM. Besides, the 50% growth inhibitory concentration (GI50) in data set [7] (subpanel value) amounted to 9.9 µM. In addition, the concentration for 50% growth inhibition (GI50) in data set [8] (setting [12]) worked out at 16.2 µM. In data set [9] (subpanel value), the 50% growth inhibitory concentration (GI50) is 3.62 µM. The GI50 in [10] (setting [13]) was found to be 5.6 µM. In addition, the GI50 in [10] (setting [14]) worked out at 5.60 µM.

As to `COc1cccc2c1C(=O)c1c(O)c3c(c(O)c1C2=O)C[C@@](O)(C(C)=O)C[C@@H]3O[C@H]1C[C@H](N)[C@H](O)[C@H](C)O1` [DAM, Daunomycin, reference compound], the GI50 was below 0.01 µM in data set [1]; 0.043 µM in [2]; 0.083 µM in data set [3]; 0.02 µM in [4]; 0.047 µM in data set [5]; 0.062 µM in data set [6]. The GI50 stood at 0.048 µM in data set [7]; 0.032 µM in data set [8] (DU-145, read-out: GI50 Prostate cancer); 0.11 µM in data set [9]; 0.044 µM in data set [10] (Homo sapiens, read-out: GI50 MG_MID).

For `CC(=O)c1cccc(Nc2c3ccccc3nc3occc23)c1` [Compound 7, 1-[3-(Furo[2,3-b]quinolin-4-ylamino)phenyl]ethanone], the melting point was in the range of 158 to 159 °C. The GI50 in data set [1] (setting [11]) came to 3.22 µM. The GI50 in data set [2] (subpanel value) is 14.5 µM. Further, the GI50 in data set [3] (subpanel value) was found to be 5.11 µM. In addition, in data set [4] (subpanel value), the GI50 came out at 7.63 µM. Also, the GI50 in [5] (subpanel value) came out at 6.09 µM. Besides, the 50% growth inhibitory concentration (GI50) in [6] (subpanel value) is 11.3 µM. Moreover, the 50% growth inhibitory concentration (GI50) in data set [7] (subpanel value) is 10.6 µM. The concentration for 50% growth inhibition (GI50) in data set [8] (setting [12]) came out at 12 µM. For the same compound, in data set [9] (subpanel value), the GI50 came to 5.32 µM. Further, the GI50 in [10] (setting [13]) is 5.27 µM. Further, the GI50 in data set [10] (setting [14]) is 5.27 µM.

In the case of `CC(=O)c1ccc(Nc2c3ccccc3nc3occ(Cl)c23)cc1` [Compound 13, 1-[4-(3-Chlorofuro[2,3-b]quinolin-4-ylamino)phenyl]ethanone], the melting point was in the range of 245 to 247 °C.

Turning to `C=C1CC(C)(c2ccc(Nc3c4ccccc4nc4occc34)cc2)OC1=O` (centres unmarked) [Compound 6, 5-[4-(Furo[2,3-b]quinolin-4-ylamino)phenyl]-2,3,4,5-tetrahydro-5-methyl-3-methylidenefuran-2-one], the 50% growth inhibitory concentration (GI50) in [1] (setting [11]) amounted to 0.9 µM; in data set [2] (subpanel value), 5.59 µM; in data set [3] (subpanel value), 1.56 µM; in data set [4] (subpanel value), 5.3 µM; in data set [5] (subpanel value) it was 1.71 µM; in [6] (subpanel value) it was 1.92 µM. For the same compound, the 50% growth inhibitory concentration (GI50) in data set [7] (subpanel value) was found to be 4.76 µM; in data set [8] (setting [12]), 1.32 µM; in data set [9] (subpanel value) it was 3.27 µM; in data set [10] (Homo sapiens, mean over all cell lines, read-out: mean GI50), 1.77 µM; in data set [10] (setting [13]), 1.77 µM.

In the case of `CO/N=C(\C)c1cccc(Nc2c3ccccc3nc3occc23)c1` [Compound 9b, (E)-1-[3-(Furo[2,3-b]quinolin-4-ylamino)phenyl]ethanone O-Methyloxime], the 50% growth inhibitory concentration (GI50) in [1] (setting [11]) amounted to 4.23 µM; in [2] (subpanel value), 10.9 µM; in data set [3] (subpanel value), 6.67 µM; in data set [4] (subpanel value) it was 11.5 µM; in data set [5] (subpanel value), 8.5 µM; in data set [6] (subpanel value), 11.6 µM. Moreover, the GI50 in data set [7] (subpanel value) was determined as 12.6 µM; in data set [8] (setting [12]), 17.9 µM; in [9] (subpanel value), 8.68 µM; in data set [10] (setting [13]) it was 7.56 µM; in data set [10] (setting [14]), 7.56 µM.

These data come from patent US6750223B2, “4-Anilino[2,3-b]quinoline derivatives, their preparation processes and pharmaceutical compositions comprising the same” (Kaohsiung Medical University, priority 2002, dated 2004).
